Entries after “also recorded” stand apart in the source; their conditions may differ.

Experimental findings from patent publication US7666619B2, “Compounds and methods for regulating bacterial growth and pathogenesis” (Princeton University, priority 2000, dated 2010) are described below.

The test system of data set [1] is AI-2 mediated luciferase expression in V. harveyi. Nature of the data set: V. harveyi bioassay, tester and control strains, bioluminescence intensity. In kind it is cell-based, Vibrio harveyi. Here is the method:
The results are normalized to cell count and control strain.
The inhibition of an AI-2 mediated response was further measured in the V. harveyi bioassay. Compound QXP031 was tested against V. harveyi tester and control strains. […] The results are normalized to cell count and any minimal effects seen in the control strain. The fold difference in bioluminescence intensity at the different drug concentrations versus no drug control is indicated above the appropriate bars in FIG. 21.

The test system of data set [2] is CAMP expression by S. pyogenes 19615. Nature of the data set: CAMP assay (S. aureus 25923 streak, S. pyogenes 19615 streaks, sheep blood agar). It is filed as cell-based, Streptococcus pyogenes. Here is the method:
The horizontal streak is S. aureus 25923 and the vertical streaks are S. pyogenes 19615. Filter disks containing either DMSO no drug control or compound QXP031 were applied to plates and incubated anaerobically overnight at 37° C.
Many streptococci produce a diffusible extracellular protein (CAMP) that acts synergistically with staphylococcal beta lysin to lyse erythrocytes on trypticase soy agar plates containing sheep blood. Hemolysis of erythrocytes is an important component of the virulence response in many pathogenic bacteria. A single straight streak of a beta lysin producing S. aureus strain is made. Steptococci to be tested are streaked perpendicular to the S. aureus streak.

Data set [3] deals with S. pyogenes 19615 proteolytic activity. Nature of the data set: Skim milk plate proteinase assay. It is filed as cell-based, Streptococcus pyogenes. The following applies: filter disk, anaerobic overnight 37° C. Here is the method: Skim milk containing plates were overlaid with top agar containing S. pyogenes 19615. Filter disks containing either DMSO no compound control or compound QXP031 were applied to plates and incubated anaerobically overnight at 37° C.
Proteinase activity is an important component of the virulence response in many pathogenic bacteria. Skim milk containing agar plates can be used to score for proteinase activity in a variety of bacteria. Proteolytic activity is scored as a clearing zone surrounding a test inoculum. The clearing zone is the result of the proteolytic breakdown of the milk proteins suspended in the agar plates. Regions where milk protein is not broken retain a milky opaque appearance.

Data set [4] has as its system V. harveyi strains MM32, BB120, BB170. Nature of the data set: Microtiter crystal violet biofilm formation assay. It is filed as cell-based, Vibrio harveyi. Here is the method:
(§1) Biofilm formation was measured using a microtiter-based assay. Free-swimming (planktonic) bacteria were cultured in AB or LB media supplemented with glucose in 96 well microtiter dishes. Biofilms typically formed along the walls of the wells at the interface of the liquid and air phase. At the end of the incubation, aliquots of a crystal violet solution (stock 0.1%) were added to the wells to stain both the adherent and the non-adherent cells. The wells were then washed with deionized water to remove non-adherent cells, and the bound crystal violet solubilized with 200 microliters of water. Absorbance reading at 600 nm (A600) were used to quantitate the amount of crystal violet dye that had adhered to the biofilms. When indicated, synthetic AI-2 was added to the wells at the beginning of the cultures.
Various amounts of synthetic AI-2 were added to the initial free-swimming bacterial cultures in LB media supplemented with glucose, and biofilm formation measured at the end of the incubation.

The test system of data set [5] is Pseudomonas aeruginosa (ATCC 27853). Nature of the data set: Microtiter crystal violet biofilm formation assay. The following applies: AB media with glucose; pH-dependent. It is filed as cell-based. Here is the method: as §1
The effects of AI-2 on biofilm formation were also evaluated in Pseudomonas aeruginosa (ATCC 27853)(FIG. 27). Biofilm formation by this organism is of particular interest because of the association of Pseudomonas aeruginosa biofilms with decreased lung capacity in subjects with cystic fibrosis.

Data set [6] has as its system MM32 indicator strain (LuxS−, LuxN−) of V. harveyi. The data set can be described thus: MM32 bioluminescence assay. It is filed as cell-based, Vibrio harveyi. The following applies: various doses, 6-hour incubation. Here is the method: The MM32 indicator strain (LuxS−, LuxN−) of V. harveyi was incubated with various doses of AI-2 and the bioluminescence signal measured at various time points during a 6-hour incubation.
Exogenous synthetic autoinducer-2 was added at the outset of the assay at a final concentration of 25 μg/ml. QXP-048 was added at the outset of the assay at a final concentration of 25 μg/ml. […] Exogeneous synthetic autoinducer-2 was added at the outset of the assay to a final concentration of 25 μg/ml. QXP-048 was added at the outset of the assay at a final concentration of 25 μg/ml.
The invention provides a luxN− and luxS− strain of V. harveyi, designated MM32, for identifying inhibitors of the quorum-sensing pathway. […] Further, since MM32 cannot produce AI-2, addition of exogenous AI-2 or its analogs allows rapid identification of inhibitors of AI-2.

Data set [7] in a line: Characterization of AI-2 activity: acid, base and heat stability. It is filed as physicochemical.
The next data set concerns SdiA. The data set can be described thus: Effect of autoinducer on SdiA regulated gene expression (rck::MudJ fusion, β-galactosidase). The following applies: AI-2 from E. coli or S. typhimurium, 0.4 M NaCl osmotic shock fluids at 10% (v/v). In kind it is cell-based. The source says:
It was possible that the AI-2 autoinducer that we have been characterizing in S. typhimurium and E. coli acted through SdiA. […] In E. coli, we assayed an ftsQ1p2p-lacZ reporter, and in S. typhimurium we assayed an rck::MudJ fusion in both an sdiA^+ and sdiA^− background. We tested the effects of addition of LB, 0.4 M NaCl, 0.4 M NaCl osmotic shock fluids containing AI-2 activity from S. typhimurium LT2, E. coli O157, and 0.4 M NaCl osmotic shock fluid from E. coli DH5α.
For ftsQ regulation in E. coli, the plasmids pMS207 and pMS209 were transformed into E. coli strain MC4100 (Silhavy et al., 1984, supra), and the transformants were grown overnight in LB containing 100 mg/L ampicillin at 30° C. with aeration. For rck regulation, S. typhimurium strains BA1105 (rck::MudJ) and BA1305 (rck::MudJ sdiA) were grown overnight in LB containing 100 mg/L kanamycin at 30° C. with aeration. The overnight cultures were diluted 20-fold into fresh medium and grown for an additional 4.5 h. At this time, each culture was divided into five identical aliquots and 10% (v/v) of one of the following was added to each aliquot: LB, 0.4M NaCl, 0.4M osmotic shock fluids from S. typhimurium LT2, E. coli O157 or E. coli strain DH5α (negative control). The osmotic shock fluids were prepared as described above, following pre-growth of the S. typhimurium LT2 and E. coli in LB containing 0.5% glucose for 6 h. […]

Turning to `CC(=O)O[C@H]1C=CC(=O)C1` [QXP031, (R)-4-acetoxy-cyclopent-2-eneone], in data set [1] (at the concentrations indicated in FIG. 21), the “effect on AI-2 mediated luciferase expression” value is reported as “specifically inhibited”. The “specific decrease in bioluminescence as a result of AI-2 inhibition” value in data set [1] (various concentrations, normalized to cell count and control strain) is “up to 15000 fold”. Moreover, in data set [2], the CAMP score entry was “negative CAMP score”. Besides, in data set [2] (filter disk, anaerobic overnight 37° C.), the “hemolysis in CAMP assay” value is given as “complete inhibition of hemolysis”. Also, in data set [3], the “proteolysis of milk protein” value is “inhibition of S. pyogenes proteolytic activity; also recorded: proteolysis was inhibited”.
Consider `CC1=C(O)C(=O)CO1` [AI-2, 4-hydroxy-5-methyl-2h-furan-3-one], for which the biofilm formation result is recorded as “block biofilm formation” in data set [4] (MM32 strain, low doses, LB media with glucose); “stimulated biofilm formation” in data set [4] (higher concentrations, all V. harveyi strains tested); “increases the extent of biofilm that forms” in data set [4] (indicator strain BB170, low doses, LB media with glucose); “increases the extent of biofilm that forms” in data set [4] (wild-type strain BB120, low doses, LB media with glucose); “dose-dependent increase in the level of biofilm formation” in data set [5]. In addition, the “biofilm production after addition to the medium” value in data set [4] (null mutant (AI-1−/AI-2−) V. harveyi) is “allows (AI-1−/AI-2−) V. harveyi to produce biofilm”. The bioluminescence signal result in data set [6] is “induction of bioluminescence”. For the same compound, the “stability of activity to acid” value in data set [7] is reported as “acid-stable”. The “stability of activity to base” value in data set [7] is “base-labile”. Besides, the “temperature of heating withstood by the activity” value in data set [7] (but not 100° C.) is “about 80 °C”. The “change in β-galactosidase production” value in the data set with SdiA is listed as “No change”.
